# Measurements from patent publication US6995167B2 (priority 1999, dated 2006).
# Biological target: α7 nAChR subtype (Rattus norvegicus, UniProt Q05941)
# Type: binding
# Settings: read-out: KD of radioligand
# Sequence of α7 nAChR subtype (Q05941 23-502 limits assumed): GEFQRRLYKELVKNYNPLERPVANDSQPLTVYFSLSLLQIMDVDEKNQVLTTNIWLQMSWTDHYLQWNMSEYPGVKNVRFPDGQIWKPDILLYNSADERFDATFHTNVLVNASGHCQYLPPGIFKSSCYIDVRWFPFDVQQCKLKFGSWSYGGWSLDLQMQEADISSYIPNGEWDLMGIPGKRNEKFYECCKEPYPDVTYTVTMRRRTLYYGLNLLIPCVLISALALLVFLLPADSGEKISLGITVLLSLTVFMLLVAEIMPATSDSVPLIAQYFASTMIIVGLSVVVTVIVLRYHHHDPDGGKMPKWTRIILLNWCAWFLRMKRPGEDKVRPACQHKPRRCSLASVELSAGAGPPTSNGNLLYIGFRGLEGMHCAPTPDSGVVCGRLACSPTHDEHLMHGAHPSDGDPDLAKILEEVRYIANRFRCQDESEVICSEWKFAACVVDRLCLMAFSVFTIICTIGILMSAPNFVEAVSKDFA
substance,measurement,value
^125I-α-Bungarotoxin [^125I-α-BTX],Kd,1.67 nM
